In patent US7112593B2, “N-aryl-substituted cyclic amine derivative and medicine containing the same as active ingredient” (Eisai Co., Ltd., priority 2001, dated 2006):

How the values were obtained:
Squalene synthase = target: T1, Squalene synthase (Rattus norvegicus, UniProt Q02769); assay: Measurement of squalene synthase inhibitive activity by using a rat liver microsome; type: biochemical; conditions: [3H]-farnesylpyrophosphoric acid
T1 construct: the obtained residue was used as a microsome fraction; from tissue; host or cells: liver microsome fraction of male Sprague-Dawley rat (8 to 9 weeks in age)
T1 sequence (Q02769 1-416): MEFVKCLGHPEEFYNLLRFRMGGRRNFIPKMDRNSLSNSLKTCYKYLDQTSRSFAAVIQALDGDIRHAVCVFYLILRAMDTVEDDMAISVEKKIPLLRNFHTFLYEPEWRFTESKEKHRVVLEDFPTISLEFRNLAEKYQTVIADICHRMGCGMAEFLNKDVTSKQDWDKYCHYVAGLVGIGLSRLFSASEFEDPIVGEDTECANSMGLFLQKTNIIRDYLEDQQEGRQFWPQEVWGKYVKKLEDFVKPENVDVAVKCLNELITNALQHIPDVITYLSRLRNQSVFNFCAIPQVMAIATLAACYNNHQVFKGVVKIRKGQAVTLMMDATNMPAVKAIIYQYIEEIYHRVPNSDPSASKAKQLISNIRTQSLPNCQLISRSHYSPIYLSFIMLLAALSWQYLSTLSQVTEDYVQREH
Description: Measurement of Squalene Synthase Inhibitive Activity by Using a Rat Liver Microsome
(I) The reaction was run on a scale of 500 μl. 200 μl of a solution containing 125 mM tris-hydrochloric acid (pH: 7.3), 2.5 mM magnesium chloride, 5 mM potassium fluoride and 10 mM reduction type nicotinamidoadenine dinucleotide phosphoric acid, 100 μl of the specimen solution with a 5-fold concentration, 100 μl of distilled water and 50 μl of 0.4 to 1 mg/ml rat liver microsome prepared by the following method were mixed.
(II) The above mixture was pre-incubated at 37° C. for 10 minutes and thereafter, 50 μl of 100 μM [^3H]-farnesylpyrophosphoric acid (30 mCi/mmol, NEN) was added to the mixture to start a reaction. The reaction was continued at 37° C. for 10 minutes. 1 ml of ethanol was added to the resulting mixture to terminate the reaction and then 1 ml of distilled water and 3 ml of petroleum ether were added to the reaction solution, which was then shaken for 30 minutes. The water phase was separated from the organic phase, the water phase was frozen at −70° C. in dry ice/methanol and the radio activity of the organic phase was measured using a liquid scintillator. Or the organic phase was evaporated to dryness using nitrogen gas and the residue was dissolved as a marker in 25 μl of chloroform containing squalene, farnesol and cholesterol. This sample was spotted on a TCL plate (Merck) and developed using heptane for 15 to 20 minutes. A band of squalene was cut from the plate to measure the radio activity by using a liquid scintillation counter. The data was expressed by a concentration (IC50) at which 50% of the radio activity of a control group was inhibited.
Preparation Method for Rat Liver Microsome
All the following operations were performed on ice and centrifugation was performed at 4° C. […] The protein concentration of the suspension was quantitated by the Bradford method and the suspension was adjusted to 20 mg/ml with the same solution and stored at −70° C.

rat liver cell = assay: Measurement of cholesterol biosynthesis inhibitive activity in a rat liver cell; type: cell-based; conditions: isolated male SD rat liver cells, [1-14C]acetic acid incorporation into free cholesterol
Description: Measurement of Cholesterol Biosynthesis Inhibitive Activity in a Rat Liver Cell
A liver cell was isolated from a male SD rat according to a usual method (collagenase perfusion method) and subjected to an experiment.
The isolated liver cells were planted in an amount of 500 μl every well on a Type collagen coated 24 well plate (cell density: 4×10^5 cell/ml). As the cell culture solution, a Williams' E medium (adjusted to pH 7.4) containing 10% FCS, 1 μM insulin, 1 μM dexamethasone, 100 units/ml penicillin and 100 μg/ml streptomycin was used. After the liver cells were incubated in a CO2 incubator for 2 hours, unattached cells were removed and the liver cells were further incubated overnight.
After the culture medium was exchanged, the specimen diluted in a 10% DMSO-90% cell culture solution was added to each well inan amount of 5 μl. DMSO (final concentration: 0.1%) was added toacontrolgroup. A [1-^14C]Aceticacid, sodiumsalt (5 μCi/well) was added to the media 10 minutes after the specimen was added, followed by culturing for further 2 hours. […]
After the development was finished, the TLC plate was subjected to iodine color development. […] This transferred image was analyzed using a BAS 2000 IP Reader and an Imaging analyzer II to measure radio activities contained in the free cholesterol fractions. […]

IC50 (Squalene synthase) | SMILES | IC50 (rat liver cell)
0.78 nM | CO[C@H]1C(=O)N(c2ccc(C#CC3(N)CCCCC3)c(Cc3ccccc3)n2)C[C@H]1O [Example 9, 1-[2-Benzyl-6-[(3R,4R)-4-hydroxy-3-methoxy-2-pyrrolidinon-1-yl]-3-pyridyl]ethynylcyclohexylamine] | 
1.4 nM | CO[C@@H]1CN(c2ccc(C#CC3(O)CCCNC3)c(Cc3ccccc3)n2)C[C@H]1O (stereo partly drawn) [Example 1, 3-[2-Benzyl-6-[(3R,4R)-3-hydroxy-4-methoxypyrrolidin-1-yl]-3-pyridyl]ethynyl-3-piperidinol] | 0.45 nM
0.53 nM | CO[C@@H]1CN(c2ccc(C#CC3(N)CCCCC3)c(Cc3ccccc3)n2)C[C@H]1O [Example 7, 1-[2-Benzyl-6-[(3R,4R)-3-hydroxy-4-methoxypyrrolidin-1-yl]-3-pyridyl]ethynylcyclohexylamine] | 
 | CO[C@H]1CN(c2ccc(C#C[C@@]3(O)CN4CCC3CC4)c(Cc3ccccc3)c2)C[C@H]1OC [Example 18, (3R)-3-[2-Benzyl-4-[(3R,4S)-3,4-dimethoxypyrrolidin-1-yl)phenyl]ethynyl-3-quinuclidinol] | 0.16 nM
